In PMC8377444 (Pharmacology Research & Perspectives, 2021):

What was measured:
[1] = Safety and tolerability assessments, whole study; assay type: in vivo, human
[2] = Treatment-emergent adverse events, single ascending dose; assay type: in vivo, human
[3] = Safety under fed conditions; assay type: in vivo, human; conditions: single dose 25 mg
[4] = Plasma pharmacokinetics, single 25 mg dose fed / food effect; assay type: in vivo, human; conditions: high-fat, high-calorie meal
TLR7/8 [5] = test: Ex vivo R848-stimulated whole blood cytokine release immunoassay, IL-6 secretion; assay type: in vivo, human
mouse models of SLE = conditions: cited from earlier work
TLR7/8 [6] = conditions: in vitro and ex vivo; cited from earlier work

Q: For `N#Cc1ccc(N2C[C@H](N)C[C@H](C(F)(F)F)C2)c2cccnc12` [enpatoran], which “Dose dependence of TEAEs” value ([1]; Parts A and B) is on record?
A: No dose‐dependent TEAEs were observed

Q: What about the “Severity of TEAEs” value ([1]; Parts A and B, all TEAEs) of the same molecule?
A: mild to moderate

Q: What about the Tolerability ([1]; single and multiple oral doses up to 200 mg, fasting or fed) of the same molecule?
A: well tolerated

Q: And the Deaths ([1]; whole study)?
A: no deaths

Q: And the “Discontinuations due to TEAEs” value ([1]; whole study)?
A: no discontinuations due to TEAEs

Q: What about the “Serious AEs” value ([1]; whole study) of the same molecule?
A: No serious AEs occurred

Q: What about the “Changes in laboratory values, vital signs or ECGs” value ([1]; whole study period) of the same molecule?
A: No clinically relevant changes

Q: And the Study intervention-related flatulence ([2]; SAD cohorts)?
A: three

Q: And the “TEAE: Flatulence” value ([2]; single dose 3 mg, n = 6)?
A: 4 (66.7) Number (%) of participants

Q: And the “TEAEs reported during Part C” value [3]?
A: no TEAEs were reported

Q: What about the “Decrease in CL/F, fed versus fasting” value [4] of the same molecule?
A: approximately 25%

Q: What about the “Inhibition of IL-6 secretion maintained throughout the dosing interval” value (TLR7/8 [5]; 200 mg QD, 25 mg BID and 50 mg BID) of the same molecule?
A: At least 60%

Q: And the “Dose with maximum inhibition of ex vivo-stimulated IL-6 secretion” value (TLR7/8 [5]; doses up to 200 mg)?
A: 200 mg

Q: And the “Time of peak TLR7/8 target modulation” value (TLR7/8 [5]; post-dose)?
A: 2 h

Q: And the “Disease activity in mouse models of SLE” value (mouse models of SLE)?
A: suppress disease activity

Q: What about the “Sustained inhibition of IL-6” value (mouse models of SLE; lowest efficacious dose in mouse models of SLE) of the same molecule?
A: 60%

Q: And the “Activation of TLR7/8” value (TLR7/8 [6])?
A: inhibit the activation of TLR7/8
